# Patent publication US20090131481A1, “Transcription Factor Modulating Compounds and Methods of Use Thereof” (Paratek Pharmaceuticals, Inc., published 2009)
# Assays:
# [1] = target: T1, ExsA (Pseudomonas aeruginosa, UniProt P26993); assay: Chemiluminescence-based ExsA-DNA binding assay; design: species or system P. aeruginosa; conditions: Table 7, cell-free system; read-out: ExsA EC50
# T1 construct: made in house
# T1 sequence (P26993 1-278): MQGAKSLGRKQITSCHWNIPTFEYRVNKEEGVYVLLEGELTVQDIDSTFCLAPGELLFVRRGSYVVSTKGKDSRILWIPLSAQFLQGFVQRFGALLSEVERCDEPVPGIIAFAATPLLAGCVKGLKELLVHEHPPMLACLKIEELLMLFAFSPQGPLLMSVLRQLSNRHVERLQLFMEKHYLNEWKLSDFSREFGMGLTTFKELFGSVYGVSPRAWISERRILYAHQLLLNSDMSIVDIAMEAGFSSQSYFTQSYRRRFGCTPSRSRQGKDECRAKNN
# [2] = target: LcrF (VirF) (Yersinia pestis, UniProt P28808); assay: biochemical; format: binding, Y. pseudotuberculosis; conditions: EC50 for inhibition of LcrF(VirF)-DNA binding
# [3] = tested on: Y. pseudotuberculosis; assay: microbe, parasite or virus in culture; conditions: Yersinia pseudotuberculosis, J774, read-out: % Cytotoxicity
# [4] = tested on: P. aeruginosa; assay: P. aeruginosa cytotoxicity whole cell assay (J774 cells, LDH release); conditions: relative to vehicle treated cells infected with wild type P. aeruginosa
# Chain of LcrF (VirF) (P28808 whole entry, looked up): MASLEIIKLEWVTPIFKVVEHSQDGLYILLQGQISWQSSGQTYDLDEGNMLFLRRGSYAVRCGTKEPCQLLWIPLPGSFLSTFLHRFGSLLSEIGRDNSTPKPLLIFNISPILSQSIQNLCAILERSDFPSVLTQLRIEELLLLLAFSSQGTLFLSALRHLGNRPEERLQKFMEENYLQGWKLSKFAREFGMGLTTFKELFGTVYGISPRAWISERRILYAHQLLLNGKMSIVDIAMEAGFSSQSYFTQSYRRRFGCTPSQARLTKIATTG
Structure (SMILES),EC50 [1] [µM],EC50 [2] [µM],activity at 50 µg/mL [3] [%],Cytotoxicity at 50 μg/mL Pseudomonas [4]
N#Cc1ccc2nc(-c3ccc(NC(=O)/C=C/c4ccccc4)cc3)n(O)c2c1 [CL],10 to 25,10 to 25,< 75,"* (reduced P. aeruginosa cytotoxicity to 99-75% of untreated, wild type levels at 50 mg/mL)"
O=C(Nc1ccc(-c2nc3ccc([N+](=O)[O-])cc3n2O)cc1)/C(F)=C/c1ccccc1 [CR],,10 to 25,< 75,"** (reduced P. aeruginosa cytotoxicity below 75% of untreated, wild type levels at 50 mg/mL)"
N#Cc1ccc2nc(-c3ccc(NC(=O)c4ccc(F)cc4)cc3)n(O)c2c1 [CV],10 to 25,> 25,< 75,"* (reduced P. aeruginosa cytotoxicity to 99-75% of untreated, wild type levels at 50 mg/mL)"
O=C(C/C=C/c1ccccc1)Nc1ccc(-c2nc3ccc([N+](=O)[O-])cc3n2O)cc1 [CY],,> 25,< 75,"* (reduced P. aeruginosa cytotoxicity to 99-75% of untreated, wild type levels at 50 mg/mL)"
O=C(Nc1ccc(-c2nc3ccc([N+](=O)[O-])cc3n2O)cc1)c1ccc(F)c(F)c1 [DA],10 to 25,10 to 25,< 75,"* (reduced P. aeruginosa cytotoxicity to 99-75% of untreated, wild type levels at 50 mg/mL)"
O=C(Nc1ccc(-c2nc3ccc([N+](=O)[O-])cc3n2O)cc1)c1ccc(-c2cncnc2)cc1 [DC],10 to 25,> 25,75 to 99,"* (reduced P. aeruginosa cytotoxicity to 99-75% of untreated, wild type levels at 50 mg/mL)"
Cc1cc(C(=O)Nc2ccc(-c3nc4ccc([N+](=O)[O-])cc4n3O)cc2)ccc1F [DD],10 to 25,10 to 25,< 75,"* (reduced P. aeruginosa cytotoxicity to 99-75% of untreated, wild type levels at 50 mg/mL)"
O=C(Nc1ccc(-c2nc3ncc([N+](=O)[O-])cc3n2O)cc1)c1ccc(F)cc1 [DI],10 to 25,10 to 25,< 75,"* (reduced P. aeruginosa cytotoxicity to 99-75% of untreated, wild type levels at 50 mg/mL)"
CC(=O)c1ccc(C(=O)Nc2ccc(-c3nc4ncc([N+](=O)[O-])cc4n3O)cc2)cc1 [DJ],,10 to 25,< 75,"* (reduced P. aeruginosa cytotoxicity to 99-75% of untreated, wild type levels at 50 mg/mL)"
CCc1cc(-c2nc3ccc([N+](=O)[O-])cc3n2O)ccc1NC(=O)c1ccc(C(C)=O)cc1 [DL],10 to 25,10 to 25,< 75,"* (reduced P. aeruginosa cytotoxicity to 99-75% of untreated, wild type levels at 50 mg/mL)"
COc1cc(C(=O)Nc2ccc(-c3nc4ccc([N+](=O)[O-])cc4n3O)cc2)ccc1F [DM],10 to 25,10 to 25,< 75,"* (reduced P. aeruginosa cytotoxicity to 99-75% of untreated, wild type levels at 50 mg/mL)"
O=C(Nc1ccc(-c2nc3ccc([N+](=O)[O-])cc3n2O)cc1)c1ccccc1O [DN],10 to 25,10 to 25,< 75,"* (reduced P. aeruginosa cytotoxicity to 99-75% of untreated, wild type levels at 50 mg/mL)"
CC(=O)c1ccc(C(=O)Nc2ccc(-c3nc4ccc([N+](=O)[O-])cc4n3O)nc2)cc1 [DR],10 to 25,> 25,< 75,"* (reduced P. aeruginosa cytotoxicity to 99-75% of untreated, wild type levels at 50 mg/mL)"
O=C(Nc1ccc(-c2nc3ccc([N+](=O)[O-])cc3n2O)c(F)c1)c1ccc(F)cc1 [DS],10 to 25,10 to 25,< 75,"* (reduced P. aeruginosa cytotoxicity to 99-75% of untreated, wild type levels at 50 mg/mL)"
COc1cc(NC(=O)c2ccc(F)cc2)ccc1-c1nc2ccc([N+](=O)[O-])cc2n1O [DT],10 to 25,> 25,< 75,"* (reduced P. aeruginosa cytotoxicity to 99-75% of untreated, wild type levels at 50 mg/mL)"
O=C(Nc1ccc(-c2nc3ccc([N+](=O)[O-])cc3n2O)cn1)c1ccc(F)cc1 [DU],10 to 25,10 to 25,< 75,"* (reduced P. aeruginosa cytotoxicity to 99-75% of untreated, wild type levels at 50 mg/mL)"
O=C(/C=C/c1ccc(F)c(CP(=O)(O)O)c1)Nc1ccc(-c2nc3ccc([N+](=O)[O-])cc3n2O)cc1 [DX],10 to 25,10 to 25,< 75,"* (reduced P. aeruginosa cytotoxicity to 99-75% of untreated, wild type levels at 50 mg/mL)"
O=C(/C=C/c1ccc(F)cc1)Nc1ccc(-c2nc3ccc([N+](=O)[O-])cc3n2O)nc1 [DZ],,10 to 25,< 75,"* (reduced P. aeruginosa cytotoxicity to 99-75% of untreated, wild type levels at 50 mg/mL)"
"CCOP(=O)(COn1c(-c2ccc(NC(=O)/C=C/c3ccc(F)cc3)cc2)nc2ccc([N+](=O)[O-])cc21)OCC [ED, (2-{4-[(E)-3-(4-Fluoro-phenyl)-acrloylamino]-phenyl}-6-nitro-benzoimidazol-1-yloxymethyl)-phosphonic acid diethyl ester]",< 10,> 25,< 75,"* (reduced P. aeruginosa cytotoxicity to 99-75% of untreated, wild type levels at 50 mg/mL)"
"O=C(/C=C/c1ccc(F)cc1)Nc1ccc(-c2nc3ccc([N+](=O)[O-])cc3n2O)cc1F [EL, (E)-N-[2-Fluoro-4-(1-hydroxy-6-nitro-1H-benzoimidazol-2-yl)-phenyl]-3-(4-fluoro-phenyl)-acrylamide]",10 to 25,10 to 25,< 75,"* (reduced P. aeruginosa cytotoxicity to 99-75% of untreated, wild type levels at 50 mg/mL)"
"CC(=O)c1ccc(C(=O)Nc2ccc(-c3nc4ccc([N+](=O)[O-])cc4n3O)cc2F)cc1 [EM, 4-Acetyl-N-[2-fluoro-4-(1-hydroxy-6-nitro-H-benzoimidazol-2-yl)-phenyl]-benzamide]",,10 to 25,< 75,"* (reduced P. aeruginosa cytotoxicity to 99-75% of untreated, wild type levels at 50 mg/mL)"
COc1cc(NC(=O)c2ccc(C(C)=O)cc2)ccc1-c1nc2ccc([N+](=O)[O-])cc2n1O [ES],10 to 25,> 25,< 75,"** (reduced P. aeruginosa cytotoxicity below 75% of untreated, wild type levels at 50 mg/mL)"
COc1cc(NC(=O)/C=C/c2ccc(F)cc2)ccc1-c1nc2ccc([N+](=O)[O-])cc2n1O [ET],10 to 25,10 to 25,< 75,"* (reduced P. aeruginosa cytotoxicity to 99-75% of untreated, wild type levels at 50 mg/mL)"
"O=C(/C=C/c1ccc(-n2cncn2)cc1)Nc1ccc(-c2nc3ccc([N+](=O)[O-])cc3n2O)cc1 [EU, (E)-N-[4-(1-Hydroxy-6-nitro-1H-benzoimidazol-2-yl)-phenyl]-3-(4-[1,2,4]triazol-1-yl-phenyl)-acrylamide]",,> 25,75 to 99,"** (reduced P. aeruginosa cytotoxicity below 75% of untreated, wild type levels at 50 mg/mL)"
"CCOc1cc2nc(-c3ccc(NC(=O)/C=C/c4ccc(F)cc4)cc3)n(O)c2cc1[N+](=O)[O-] [EV, (E)-N-[4-(5-Ethoxy-1-hydroxy-6-nitro-1H-benzoimidazol-2-yl)-phenyl]-3-(4-fluoro-phenyl)-acrylamide]",,10 to 25,75 to 99,"** (reduced P. aeruginosa cytotoxicity below 75% of untreated, wild type levels at 50 mg/mL)"
"Cc1cc2nc(-c3ccc(NC(=O)c4ccc(-c5cnco5)cc4)cc3)n(O)c2cc1[N+](=O)[O-] [EX, N-[4-(1-Hydroxy-5-methyl-6-nitro-1H-benzoimidazol-2-yl)-phenyl]-4-oxazol-5-v-benzamide]",,> 25,75 to 99,"** (reduced P. aeruginosa cytotoxicity below 75% of untreated, wild type levels at 50 mg/mL)"
O=C(Nc1ccc(-c2nc3ccc([N+](=O)[O-])cc3n2O)cc1)C1=Cc2ccccc2OC1 [EY],10 to 25,10 to 25,< 75,"* (reduced P. aeruginosa cytotoxicity to 99-75% of untreated, wild type levels at 50 mg/mL)"
"CN(C)c1cc2nc(-c3ccc(NC(=O)/C=C/c4ccc(F)cc4)cc3)n(O)c2cc1[N+](=O)[O-] [EZ, N-[4-(5-Dimethylamino-1-hydroxy-6-nitro-1H-benzoimidazol-2-yl)-phenyl]-3-(4-fluorocinnamyl)-amide]",10 to 25,> 25,75 to 99,"** (reduced P. aeruginosa cytotoxicity below 75% of untreated, wild type levels at 50 mg/mL)"
